Measured values taken from patent US10219516B2, “Molecules having pesticidal utility, and intermediates, compositions, and processes, related thereto” (priority 2015, dated 2019).

Assays:
Type in all cases: in vivo
[1] = test system: Green Peach Aphid (Myzus persicae, MYZUPE); assay: Bioassay on Green Peach Aphid (GPA), foliar spray on infested cabbage seedlings; details: foliar, 72 h, Species GPA (Green Peach Aphid), read-out: GPA (Biological Results, rating)
Outline: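 Cabbage seedlings (2-3 true leaves) infested with 20-50 wingless adult and nymph aphids one day before treatment; sprayed to runoff at 200 ppm in 0.025% Tween 20 water with 20% acetone/methanol, four pots per treatment. Held three days at about 25° C; live aphids counted, % control by Abbott's correction versus solvent check.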

[2] = test system: Beet Armyworm (Spodoptera exigua, LAPHEG); assay: Bioassay on Beet Armyworm (BAW), 128-well diet tray assay; details: Species BAW (Beet Armyworm), read-out: BAW (Biological Results, rating)
Outline: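 Diet in each of eight wells received 50 μg/cm^2 of test molecule (90:10 acetone-water, dried), then one to five second-instar larvae were added. Mortality (%) was scored after five to seven days at 25° C. under 14:10 light-dark and averaged across the wells.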

[3] = test system: Cabbage Looper (Trichoplusia ni, TRIPNI); assay: Bioassay on Cabbage Looper (CL), 128-well diet tray assay; details: Trichoplusia ni; Species CL (Cabbage Looper); read-out: CL (Biological Results, rating)
Outline: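 Test molecule is dissolved in 90:10 acetone-water and applied at 50 μg/cm^2 onto artificial diet, then dried. One to five second-instar larvae go into each of eight wells. Trays, sealed but vented, stay at 25° C., 14:10 light-dark, five to seven days, after which mortality is averaged.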

[4] = test system: Yellow Fever Mosquito (Aedes aegypti, AEDSAE); assay: Bioassay on Yellow Fever Mosquito (YFM), 96-well plate larval assay; details: Species YFM (Yellow Fever Mosquito)
Outline: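 Each well was scored for mortality after 3 days at room temperature under a non-evaporative lid. Test molecules came from DMSO masters (4000 ppm stock) diluted with water/acetone 90:10 and dispensed into six replicate plates, which were then infested with roughly 1-day-old larvae in liver-powder water.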

Compound	pest or weed control at 200 µg/mL [1] [%]	pest or weed control at 50 µg/cm2 [2] [%]	pest or weed control at 50 µg/cm2 [3] [%]	YFM (Biological Results, rating) [4]
O=C(Nc1cccnc1)c1cc(NC(=O)[C@H]2[C@H](c3cc(Cl)cc(Cl)c3)C2(Cl)Cl)ccc1Cl (relative stereo) [F27, trans-2-Chloro-5-(2,2-dichloro-3-(3,5-dichlorophenyl)cyclopropane-1-carboxamido)-N-(pyridin-3-yl)benzamide]	0 to 80	50 to 100	50 to 100	A (80-100)
O=C(Nc1ccc(F)cc1)c1cc(NC(=O)[C@H]2[C@H](c3ccc(Cl)c(Cl)c3)C2(Cl)Cl)ccc1F (relative stereo) [F28, trans-5-(2,2-Dichloro-3-(3,4-dichlorophenyl)cyclopropane-1-carboxamido)-2-fluoro-N-(4-fluorophenyl)benzamide]	80 to 100	50 to 100	50 to 100	A (80-100)
O=C(Nc1ccc(F)cc1)c1cc(NC(=O)[C@H]2[C@H](c3cc(Cl)c(Cl)c(Cl)c3)C2(Cl)Cl)ccc1F (relative stereo) [F29, trans-5-(2,2-Dichloro-3-(3,4,5-trichlorophenyl)cyclopropane-1-carboxamido)-2-fluoro-N-(4-fluorophenyl)benzamide]	0 to 80	50 to 100	50 to 100	A (80-100)
COc1c(NC(=O)[C@H]2[C@H](c3cc(Cl)cc(Cl)c3)C2(Cl)Cl)cccc1C(=O)Nc1ccc(F)cc1 (relative stereo) [F30, trans-3-(2,2-Dichloro-3-(3,5-dichlorophenyl)cyclopropane-1-carboxamido)-N-(4-fluorophenyl)-2-methoxybenzamide]	0 to 80	50 to 100	50 to 100	A (80-100)
O=C(Nc1cccnc1Cl)c1cc(NC(=O)[C@H]2[C@H](c3cc(Cl)cc(Cl)c3)C2(Cl)Cl)ccc1Cl (relative stereo) [F31, trans-2-Chloro-N-(2-chloropyridin-3-yl)-5-(2,2-dichloro-3-(3,5-dichlorophenyl)cyclopropane-1-carboxamido)benzamide]	80 to 100	50 to 100	50 to 100	A (80-100)
N#Cc1ccc(NC(=O)c2cc(NC(=O)[C@H]3[C@H](c4cc(Cl)cc(Cl)c4)C3(Cl)Cl)ccc2Cl)cn1 (relative stereo) [F33, trans-2-Chloro-N-(6-cyanopyridin-3-yl)-5-(2,2-dichloro-3-(3,5-dichlorophenyl)cyclopropane-1-carboxamido)benzamide]	0 to 80	50 to 100	50 to 100	A (80-100)
CN(C(=O)c1cc(NC(=O)[C@H]2[C@H](c3cc(Cl)cc(Cl)c3)C2(Cl)Cl)ccc1Cl)c1cccc(F)c1 (relative stereo) [F34, trans-2-Chloro-5-(2,2-dichloro-3-(3,5-dichlorophenyl)cyclopropane-1-carboxamido)-N-(3-fluorophenyl)-N-methylbenzamide]	0 to 80	50 to 100	50 to 100	A (80-100)
CN(C(=O)c1cc(NC(=O)[C@H]2[C@H](c3cc(Cl)cc(Cl)c3)C2(Cl)Cl)ccc1Cl)c1ccccc1F (relative stereo) [F35, trans-2-Chloro-5-(2,2-dichloro-3-(3,5-dichlorophenyl)cyclopropane-1-carboxamido)-N-(2-fluorophenyl)-N-methylbenzamide]	80 to 100	50 to 100	50 to 100	A (80-100)
Cc1cc(C#N)ccc1NC(=O)c1cc(NC(=O)[C@H]2[C@H](c3cc(Cl)cc(Cl)c3)C2(Cl)Cl)ccc1Cl (relative stereo) [F36, trans-2-Chloro-N-(4-cyano-2-methylphenyl)-5-(2,2-dichloro-3-(3,5-dichlorophenyl)cyclopropane-1-carboxamido)benzamide]	0 to 80	50 to 100	50 to 100	A (80-100)
Cc1cc(F)ccc1NC(=O)c1cc(NC(=O)[C@H]2[C@H](c3cc(Cl)cc(Cl)c3)C2(Cl)Cl)ccc1Cl (relative stereo) [F37, trans-2-Chloro-5-(2,2-dichloro-3-(3,5-dichlorophenyl)cyclopropane-1-carboxamido)-N-(4-fluoro-2-methylphenyl)benzamide]	80 to 100	50 to 100	50 to 100	A (80-100)
O=C(Nc1ccccc1Cl)c1cc(NC(=O)[C@H]2[C@H](c3cc(Cl)cc(Cl)c3)C2(Cl)Cl)ccc1Cl (relative stereo) [F38, trans-2-Chloro-N-(2-chlorophenyl)-5-(2,2-dichloro-3-(3,5-dichlorophenyl)cyclopropane-1-carboxamido)benzamide]	80 to 100	50 to 100	50 to 100	A (80-100)
O=C(Nc1ccc(F)cc1F)c1cc(NC(=O)[C@H]2[C@H](c3ccc(Cl)c(Cl)c3)C2(Cl)Cl)ccc1Cl (relative stereo) [F39, trans-2-Chloro-5-(2,2-dichloro-3-(3,4-dichlorophenyl)cyclopropane-1-carboxamido)-N-(2,4-difluorophenyl)benzamide]	80 to 100	50 to 100	50 to 100	A (80-100)
O=C(Nc1ccc(F)cc1F)c1cc(NC(=O)[C@H]2[C@H](c3cc(Cl)c(Cl)c(Cl)c3)C2(Cl)Cl)ccc1Cl (relative stereo) [F40, trans-2-Chloro-5-(2,2-dichloro-3-(3,4,5-trichlorophenyl)cyclopropane-1-carboxamido)-N-(2,4-difluorophenyl)benzamide]	80 to 100	50 to 100	50 to 100	B (More than 0-Less than 80)
CC(C)c1ccccc1NC(=O)c1cc(NC(=O)[C@H]2[C@H](c3cc(Cl)cc(Cl)c3)C2(Cl)Cl)ccc1Cl (relative stereo) [F41, trans-2-Chloro-5-(2,2-dichloro-3-(3,5-dichlorophenyl)cyclopropane-1-carboxamido)-N-(2-isopropylphenyl)benzamide]	0 to 80	50 to 100	50 to 100	A (80-100)
CCc1cccc(C)c1NC(=O)c1cc(NC(=O)[C@H]2[C@H](c3cc(Cl)cc(Cl)c3)C2(Cl)Cl)ccc1Cl (relative stereo) [F42, trans-2-Chloro-5-(2,2-dichloro-3-(3,5-dichlorophenyl)cyclopropane-1-carboxamido)-N-(2-ethyl-6-methylphenyl)benzamide]	0 to 80	50 to 100	50 to 100	A (80-100)
CN(C(=O)c1cc(NC(=O)[C@H]2[C@H](c3cc(Cl)cc(Cl)c3)C2(Cl)Cl)ccc1Cl)c1ccc(F)cc1F (relative stereo) [F44, trans-2-Chloro-5-(2,2-dichloro-3-(3,5-dichlorophenyl)cyclopropane-1-carboxamido)-N-(2,4-difluorophenyl)-N-methylbenzamide]	80 to 100	50 to 100	50 to 100	A (80-100)
CN(C(=O)c1cc(NC(=O)[C@H]2[C@H](c3cc(Cl)cc(Cl)c3)C2(Cl)Cl)ccc1F)c1cccc(F)c1 (relative stereo) [F46, trans-5-(2,2-Dichloro-3-(3,5-dichlorophenyl)cyclopropane-1-carboxamido)-2-fluoro-N-(3-fluorophenyl)-N-methylbenzamide]	0 to 80	50 to 100	50 to 100	A (80-100)
CN(C(=O)c1cccc(NC(=O)[C@H]2[C@H](c3cc(Cl)cc(Cl)c3)C2(Cl)Cl)c1F)c1ccc(F)cc1 (relative stereo) [F47, trans-3-(2,2-Dichloro-3-(3,5-dichlorophenyl)cyclopropane-1-carboxamido)-2-fluoro-N-(4-fluorophenyl)-N-methylbenzamide]	0 to 80	50 to 100	50 to 100	B (More than 0-Less than 80)
O=C(Nc1cccc(F)c1)c1cc(NC(=O)[C@H]2[C@H](c3cc(Cl)c(Cl)c(Cl)c3)C2(Cl)Cl)ccc1Cl (relative stereo) [F50, trans-2-Chloro-5-(2,2-dichloro-3-(3,4,5-trichlorophenyl)cyclopropane-1-carboxamido)-N-(3-fluorophenyl)benzamide]	0 to 80	50 to 100	50 to 100	A (80-100)
